Series [1] relates to DA levels in the nucleus accumbens. The series is described as follows: Microdialysis: DA levels in the nucleus accumbens of freely moving rats. The following applies: 8.1 mg/kg s.c. Format: in vivo, rat. An excerpt:
It is well-known that psychostimulants increase locomotor activity via an increase in extracellular DA levels in the nucleus accumbens, which is the terminal area of the mesolimbic DA projections (Guix et al., 1992, Neurosci. Lett., 138(1), 137-140; Moghaddam et al., 1989, Synapse, 4(2), 156-161). It is also known, that the antagonistic effect of antipsychotics on stimulant-induced hyperlocomotion is related to the effect of antipsychotics to inhibit the stimulated DA levels in the nucleus accumbens (Broderick et al., 2004, Prog. Neuropsychopharmacology and Biol. Psych., 28, 157-171). Thus, the nucleus accumbens is an accepted neuroanatomical site for testing reversal of positive symptoms of psychosis. […] The experiments were conducted such that the data may be associated with the behavioural data obtained above.
Subjects. Male Sprague-Dawley rats (Charles River), initially weighing 275-300 g, were used. The animals were housed under a 12-hr light/dark cycle under controlled conditions for regular in-door temperature (21±2° C.) and humidity (55±5%) with food and tap water available ad libitum.
Surgery. Animals were anaesthetized with hypnorm/dormicum (2 ml/kg s.c.) and intracerebral guide cannulas (CMA/12) were stereotaxically implanted, positioning the dialysis probe tip in the nucleus accumbens (co-ordinates: […] anterior to bregma, —1.2 mm lateral to bregma, 8.0 mm ventral to the dura). Anchor screws and acrylic cement was applied for fixation of the guide cannula. The body temperature of the animals was maintained at 37° C. by means of a rectal probe and a heating plate. The rats were allowed to recover from surgery for 2 days, housed singly in cages.
Experimental procedure. On the day of the experiment, a microdialysis probe (CMA/12, 0.5 mm diameter, 2 mm length) was inserted through the guide cannula of the conscious animal. The probes were connected to a microinjection pump via a dual channel swivel which allowed the animals unrestricted movements. Perfusion of the microdialysis probe with filtered Ringer solution (145 mM NaCl, 3 mM KCl, 1 mM MgCl2, 1.2 mM CaCl2) was maintained for the duration of the experiment at a constant flow rate of 1 μL/min. After 180 min of stabilisation, the experiments were initiated. Dialysates were collected every 20 min. After the experiments the rats were sacrificed by decapitation, their brains removed, frozen and sliced for probe placement verification.
Administration of compounds. […] Thirty min after the first administration dex-amphetamine sulphate (0.5 mg/kg s.c.) was administered.
Analysis of dialysate. The concentration of dopamine (DA) in the dialysates was assessed by means of HPLC with electrochemical detection. The dialysate constitutents were separated by reverse phase liquid chromatography (ODS 150×3 mm, […]). Mobile phase consisted of 90 mM NaH2PO4, 50 mM sodium citrate, 367 mg/l sodium 1-octanesulfonic acid, 50 μM EDTA and 8% acetonitrile (pH 4.0) at a flow rate of 0.5 ml/min. Electrochemical detection of DA was accomplished using a coulometric detector; potential set at E1=−75 mV and E2=300 mV (guard cell at 350 mV) (Coulochem II, ESA). The dialysate levels of DA in the three dialyse samples preceding the administration of compound were averaged and used as baseline level of DA (100%)

In series [2] the test system is K(+) current in neuronal cells. The following applies: cited from earlier work.
Series [3] is described as follows: Inhibition of baseline motility in vehicle-pretreated, vehicle-challenged mice. The following applies: NMRI, mouse, in vivo.
For series [4], the system named is dopaminergic neurons in the ventral tegmental area. The following applies: ex vivo (Hansen et al. 2005); cited from earlier work.
The test system of series [5] is incidence of seizures in epileptic patients. The following applies: clinical trials (Bialer et al. 2002); cited from earlier work.
The test system of series [6] is conditioned avoidance response in rats. The series is described as follows: Conditioned avoidance response in rats. The following applies: rats. Format: in vivo, rat. An excerpt: In the conditioned avoidance response (CAR) model, rats are trained to respond to a stimulus within a fixed time by moving from one place to another in order to avoid a footshock. Antipsychotics selectively suppress the avoidance response within a certain dose-range without suppressing escape behavior elicited by the appearance of the footshock. The CAR model is considered to be a predictive and reliable animal model that is sensitive to compounds with an antipsychotic potential.
Subjects. Male Wistar rats (Taconic, Denmark) weighing 150 g at the beginning of the study are used. The rats are housed ii pairs and maintained on a 12 h light/dark cycle (lights on 06:00). The animals are fed once daily (approx. 6 pellets/rat) in order to keep the rats at 80% of their free-feeding weight. Water is available ad libitum. Temperature (21±1° C.) and relative humidity (55±5%) are automatically controlled.
Experimental procedure. Conditioned avoidance testing is conducted using four automated shuttle-boxes (ENV-010M, MED-Associates) each placed in a sound-attenuated chamber. Each box is divided into two compartments by a partition with an opening. The position of the animal and crossings from one compartment to the other are detected by two photocells placed on either side of the dividing wall. Upon presentation of the conditioned stimuli (CS), tone and light, the animals have 10 s to cross to the other compartment of the shuttle-box in order to turn the CS off (end the trial) and avoid the appearance of the unconditioned stimulus (UCS). If the rat remains in the same compartment for more than 10 s, the UCS is presented as 0.5 mA scrambled foot-shocks until escape is performed or 10 s in maximal duration. The following behavioural variables are evaluated: avoidance (response to CS within 10 s); escape (response to CS+UCS); escape failures (failure to respond); intertrial crosses and locomotor activity. The rats are habituated to the shuttle-box 3 min before each test session. During training each test session consists of 30 trials with intertrial intervals varying randomly between 20 s and 30 s. Training is carried until the rats display an avoidance of 80% or more, on 3 consecutive days. A test is preceded by a pre-test the day before giving rise to a baseline value for each animal, thus the animals serve as their own control. Seven to eight rats are used at each dose level. A parallel control group receiving the vehicle of the test compound is also included.
Administration of compound.
Statistical analyses. The effects of compounds on avoidance and escape failure behaviours were statistically evaluated by means of a two-way repeated measures ANOVA followed by post hoc comparisons (Student-Newman-Keuls Method) when appropriate. P-levels <0.05 were considered statistically significant.

For a further series, the system named is anticonvulsant tests. The following applies: oral and intraperitoneal administration, rats and mice (Rostock et al. 1996); cited from earlier work.

The term ED50 denotes the dose at which the effect has come halfway, by size or by number of responders. For `CCOC(=O)Nc1ccc(NCc2ccc(F)cc2)cc1N`, the “DA level in the nucleus accumbens, amphetamine + compound” value in series [1] (time 0 min, freely moving rats) is reported as 96 ± 6 % of baseline; in series [1] (time 20 min, amphetamine 0.5 mg/kg s.c. 30 min after compound) it was 160 ± 11 % of baseline; in series [1] (time 40 min, amphetamine 0.5 mg/kg s.c. 30 min after compound), 241 ± 33 % of baseline; in series [1] (time 60 min, amphetamine 0.5 mg/kg s.c. 30 min after compound) it was 221 ± 26 % of baseline; in series [1] (time 80 min, amphetamine 0.5 mg/kg s.c. 30 min after compound) it was 217 ± 14 % of baseline; in series [1] (time 100 min, amphetamine 0.5 mg/kg s.c. 30 min after compound) it was 173 ± 9 % of baseline. The “DA level in the nucleus accumbens, amphetamine + compound” value in series [1] (time 120 min, amphetamine 0.5 mg/kg s.c. 30 min after compound) is listed as 139 ± 9 % of baseline; in series [1] (time 140 min, amphetamine 0.5 mg/kg s.c. 30 min after compound) it was 120 ± 9 % of baseline; in series [1] (time −20 min, freely moving rats), 99 ± 6 % of baseline; in series [1] (time −40 min, freely moving rats), 105 ± 3 % of baseline. In series [2], the “Activation of a K(+) current” value is recorded as “activate a K(+) current in neuronal cells”. Also, the ED50 at 30 min in series [3] was 7.6 mg/kg. Also, the “Firing of dopaminergic neurons in the ventral tegmental area” value in series [4] is on record as “suppress the firing of dopaminergic neurons in the ventral tegmental area ex vivo”. The “Incidence of seizures in epileptic patients” value in series [5] was “shown effectiveness in reducing the incidence of seizures in epileptic patients”. For the same compound, the results for the “% inhibition of avoidance. Relative to baseline.” value in series [6] (5 mg/kg s.c. 30 min before the test) and in series [6] (10 mg/kg s.c. 30 min before the test) were 1% and 59%, respectively. Also, the “Escape failures (effect on motor performance)” value in series [6] (all tested doses, data not shown) is “None of the tested doses caused any incidences of escape failures”. Also, the “Activity in a range of anticonvulsant tests” value with anticonvulsant tests was “active after oral and intraperitoneal administration in rats and mice in a range of anticonvulsant tests”.

(Values after patent US20090118285A1, “USE OF KCNQ-OPENERS FOR TREATING OR REDUCING THE SYMPTOMS OF SCHIZOPHRENIA” (H. Lundbeck A/S, priority 2006, published 2009).)
